In patent publication US20200038355A1, “ANTIOXIDANTS FOR USE IN OPHTHALMIC SURGERY” (Case Western Reserve University, priority 2017, published 2020):
Entries after “also recorded” stand apart in the source; their conditions may differ.

Tests used:
mice = experiment: Mouse mock cataract surgery in vivo, immunofluorescence of EMT markers
Procedure: Age-matched four month old mice were used in this study. Mice were anesthetized and a central corneal incision was made. The lens fiber mass was removed by hydrodissection and the remaining lens was carefully washed by HBSS to remove any lens fiber debris. Saline buffer was injected to help mice to restore their proper eye shape. Eye drops containing the antibiotic Ofloxacin were applied once immediately after surgery, and mice were sacrificed at 2, 3, 4 and 5 days after surgery. For each mouse, bilateral surgeries were performed and 25 μl of 10 mM NAC or 2 mM of GSH-EE was injected into right eye chamber immediately after surgery and continual eye drop topical application was given every 6 hr from 7 am to 11 pm. The untreated left eye served as a control. Eyes collected immediately after surgery served as time zero control. At least 6 mice were used in each group. At each time point, eyes were carefully dissected and placed in 4% paraformaldehyde for 18 hr, and then subjected to paraffin embedding and sectioning. For paraffin embedded slides, 6 μm thick sections were deparaffinized and rehydrated using standard procedure. The slides were rinsed with PBS for 10 min and antigen retrieval was carried out in 0.1M sodium citrate, pH 6.0 buffer in a microwave oven using a 4 min at power 5 plus 8 min at power 3 program. The slides were then blocked and permeabilized with 5% normal goat serum, 0.3% triton X-100 for 30 min. The primary antibody, rabbit polyclonal collagen I antibody (1:250) (Abcam, Cambridge, Mass.), rabbit polyclonal vimentin (1:500) (ThermoFisher), mouse monoclonal fibronectin antibody (1:5) (Developmental Studies Hybridoma Bank, DSHB, University of Iowa), mouse monoclonal active β-catenin (Tyr489) (1:10) (DSHB) or FITC labeled mouse monoclonal αSMA antibody (1:1000) (Sigma-Aldrich) were applied in 0.1% BSA PBS solution and incubated at 4° C. overnight in a humid chamber. After wash, the Alexa-488 or/and Alexa-594 conjugated secondary antibodies (ThermoFisher) were then applied and incubated at room temperature for one hour in a humid chamber. After wash, the slides were mounted with Prolong antifade with DAPI (ThermoFisher). For lens explant culture, the explant was briefly fixed with 10% formaldehyde for 10 min and then subjected to directly staining procedure without antigen retrieval procedure. Confocal microscope—All confocal images were collected by a Leica SP8 gSTED confocal microscope equipped with two 3 Hyd SP GaAsP detectors and the AOBS system lasers include a 405 nm, Argon (458, 476, 488, 496, 514 nm), a tunable white light (470 to 670 nm), and a 592 nm STED depletion laser. For proper comparison, each channel of fluorescence was adjusted to the highest sensitivity/intensity but without over saturation from samples with the strongest signal. […]

[1] = system: mouse lens ex vivo culture; experiment: Mouse whole lens ex vivo culture, lens capsule immunoblot; type: cell-based; conditions: for αSMA production after BSO stimulation: ex vivo cultured mouse lens (lens capsule), 10 mM NAC or 0.5 mM GSH-EE with 500 μM BSO, 48 hr; for TGFβ2-mediated αSMA production: lens capsule from whole lens culture, 10 mM NAC or 0.5 mM GSH-EE with 1 ng/ml TGFβ2, 48 hr
Procedure: The isolated intact lens was rinsed three times with HBSS and then cultured in 12-well-plates with serum-free Medium 199 (ThermoFisher) with 50 unit/ml penicillin streptomycin at 37° C. in 5% CO2 incubator, as described above. The lens explant was cultured following the same procedure as described by a previous report. […] et al., Exp Eye Res 71, 591-597 (2000). In brief, the mouse lens was placed in an anterior-toposterior orientation with the anterior attached to the culture dish. The lens posterior capsule was torn/cut by the tip of extra-fine forceps and then peeled towards anterior capsule and pinned on the plastic culture dish. The lens fiber mass was removed thereafter. The explant was cultured in serum-free MEM medium supplied with 50 unit/ml penicillin streptomycin at 37° C. in 5% CO2 incubator as described above. Only healthy growing explants were used for the described study and any unhealthy looking explants, such as folded explants or those with cell detachment, were discarded. Cells were placed 24 hr before the treatment and fresh medium was replaced immediately before the treatment. The indicated concentrations of BSO, DMF, NAC, GSH-EE or TGFβ2 were added to fresh medium and incubated at various time intervals as indicated. After treatment time, the cells were harvested after three washes with ice-cold PBS and subjected to immunoblot or other assays as described below. For whole lens culture, the serum-free medium with or without BSO, NAC, GSH-EE or TGFβ2 was incubated immediately after isolation for 48 hr and the whole lens or lens capsule was collected for further analysis. For lens explant culture, 48 hr after explant culture, various stimulates were used in fresh serum-free medium for an additional 48 hr, and the explant was fixed with 10% formaldehyde for 10 min before immunofluorescence stain, as described below. The cells, whole lens, lens capsule, and lens fibers were collected and lysed in lysis buffer containing 20 mM Tris pH 7.5, 1 mM EDTA, 1 mM EGTA, 150 mM NaCl, 1% Triton X-100, 2.5 mM sodium pyrophosphate, 1 mM bα-Glycerolphosphate, 1 mM Na3VO4, 1 mg/ml Leupeptin, 1 mM PMSF on ice for 10 min. The protein concentration from the supernatant was determined by protein BCA assay (ThermoFisher). The protein extract was further processed for immunoblot analysis and probed for αSMA, collagen I, vimentin, phosphorylated Smad2, phosphorylated Smad3, phosphorylated GSK-3β and (β-catenin. All data were normalized to the level of GAPDH.

SMILES: CCOC(=O)CNC(=O)[C@H](CS)NC(=O)CC[C@H](N)C(=O)O [GSH-EE, glutathione ethyl ester]
- production of EMT marker proteins (fibronectin, vimentin, collagen I, αSMA) (mice; Gclm KO mice, 2 mM GSH-EE): partially but significantly attenuate
- αSMA production after BSO stimulation [1]: alleviated; also recorded: partially, but significantly, block
- TGFβ2-mediated αSMA production [1]: significantly alleviate
- TGFβ2-mediated αSMA production ([1]; listed as GSHEE): alleviated

SMILES: CC(=O)N[C@@H](CS)C(=O)O [NAC, N-acetyl cysteine]
- nuclear colocalization (translocation) of active β-catenin (mice; Gclc−/− (LEGSKO) mice, 72 hr after surgery, 10 mM NAC injected into eye chamber plus eye drops every 6 hours): significantly attenuated
- fibronectin/vimentin and collagen I/αSMA expression compared to control eyes (mice; WT and LEGSKO mice, 10 mM NAC injection immediately after surgery and continuous topical application): remarkable attenuation
- inhibitory effect on EMT process compared with GSH-EE (mice; in vivo cataract surgery models): much higher inhibitory effect than GSH-EE
- αSMA production after BSO stimulation [1]: alleviated; also recorded: completely abolish
- TGFβ2-mediated αSMA production [1]: alleviated; also recorded: completely block
